Experimental data: paper PMC9123294, “Role of LL-37 in thrombotic complications in patients with COVID-19” (Cellular and Molecular Life Sciences: CMLS, 2022)

B1: Cramp (peptide)
peptide: GLLRKGGEKIGEKLKKIGQKIKNFFQKLVPQPE
notes: also called LL-37 homolog from Mus musculus; cathelicidin peptide; source: synthetic peptide (GL Biochem, Shanghai; purity > 98%)

Assays:
Human alpha thrombin = Human alpha thrombin (Homo sapiens, UniProt P00734); test: biochemical
Method: SPR analysis was performed as described previously, with some modifications. Briefly, thrombin and FXa were immobilized on the activated sensor chip CM-5 by amine coupling. […] The equilibrium dissociation constant (KD) was calculated using the Langmuir model with Biacore evaluation software provided by the manufacturer.

Human factor Xa = biological target: T1, Human factor Xa (human, UniProt P00742 41-179; P00742 235-488); test: SPR; thrombin and FXa immobilised on a CM-5 sensor chip by amine coupling; LL-37 or Cramp flowed in HBS-EP+ running buffer at 30 ul/min; BIAcore 3000; KD from the Langmuir model; conditions: both partners purified
T1 construct: also called FXa; source: bought: Enzyme Research Laboratories (HFXa 1011)
T1 sequence (P00742 41-179, chain 1 of 2): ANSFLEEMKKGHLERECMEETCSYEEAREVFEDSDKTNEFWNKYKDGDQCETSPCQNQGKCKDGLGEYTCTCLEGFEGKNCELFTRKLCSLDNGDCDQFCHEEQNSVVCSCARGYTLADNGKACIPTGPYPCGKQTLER
T1 sequence (P00742 235-488, chain 2 of 2): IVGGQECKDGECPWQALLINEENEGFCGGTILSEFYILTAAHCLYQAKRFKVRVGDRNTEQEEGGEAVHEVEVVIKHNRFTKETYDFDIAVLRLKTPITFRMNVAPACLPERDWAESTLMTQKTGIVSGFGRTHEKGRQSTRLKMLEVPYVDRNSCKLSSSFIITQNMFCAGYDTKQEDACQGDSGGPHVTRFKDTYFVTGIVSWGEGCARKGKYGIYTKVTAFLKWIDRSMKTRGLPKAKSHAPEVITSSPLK

Molecule	Kd (Human alpha thrombin)	Kd (Human factor Xa)
CC[C@H](C)[C@H](NC(=O)[C@H](CCCCN)NC(=O)[C@H](CCC(=O)O)NC(=O)[C@H](CCCCN)NC(=O)[C@H](CO)NC(=O)[C@H](CCCCN)NC(=O)[C@H](CCCNC(=N)N)NC(=O)[C@H](Cc1ccccc1)NC(=O)[C@H](Cc1ccccc1)NC(=O)[C@H](CC(=O)O)NC(=O)CNC(=O)[C@H](CC(C)C)NC(=O)[C@@H](N)CC(C)C)C(=O)NCC(=O)N[C@@H](CCCCN)C(=O)N[C@@H](CCC(=O)O)C(=O)N[C@@H](Cc1ccccc1)C(=O)N[C@@H](CCCCN)C(=O)N[C@@H](CCCNC(=N)N)C(=O)N[C@H](C(=O)N[C@H](C(=O)N[C@@H](CCC(N)=O)C(=O)N[C@@H](CCCNC(=N)N)C(=O)N[C@H](C(=O)N[C@@H](CCCCN)C(=O)N[C@@H](CC(=O)O)C(=O)N[C@@H](Cc1ccccc1)C(=O)N[C@@H](CC(C)C)C(=O)N[C@@H](CCCNC(=N)N)C(=O)N[C@@H](CC(N)=O)C(=O)N[C@@H](CC(C)C)C(=O)N[C@H](C(=O)N1CCC[C@H]1C(=O)N[C@@H](CCCNC(=N)N)C(=O)N[C@H](C(=O)N[C@@H](CCC(=O)O)C(=O)N[C@@H](CO)C(=O)O)[C@@H](C)O)C(C)C)[C@@H](C)CC)C(C)C)[C@@H](C)CC [LL-37]	2.64 µM	–
B1	–	317 µM
